Data reported in patent US20080175872A1, “Controlled Release Dosage Form Containing Lercanidipine and a Performance-enhancing Acid” (OSMOTICA CORP., priority 2006, published 2008).
Several values for one entry are separate records, joined by “and”; a condition that tells them apart may be missing. Equal entries are not always repeated.

Key:
[1] = oral administration of an immediate release form; cited from earlier work
[2] = Stability of lercanidipine HCl polymorph II alone or 1/1 with organic acid, impurities by HPLC; format: physicochemical
Description: Analytical testing of the different samples was done by HPLC, column RP18, 300×3.9 mm ID, particle size 4 μm, in acetonitrile-0.15 M sodium perchlorate buffer, pH 3.0, at a flow rate of 1.3 ml/min, at 30° C., detector UV 240 nm. In all cases impurities were reported as % of the area of the impurity peak referred to the area of the main peak (a/a). The lercanidipine is the lercanidipine HCl polymorph II. […] The lercanidipine is the lercanidipine HCl polymorph II.

[3] = cited from earlier work
[4] = 50° C., 1.5 month, closed vials

Impurity 3 ([2]; 5° C. (reference condition)): 0.18 % a/a and 0.27 % a/a | Impurity B ([2]; 5° C. (reference condition)): 0.02 % a/a and 0.01 % a/a | Maximum unknown impurities ([2]; 5° C. (reference condition)): 0.04 % a/a | Impurity 3 ([2]; 50° C. + 75% RH): 0.28 % a/a and 0.16 % a/a | Impurity B ([2]; 50° C. + 75% RH): 0.01 % a/a | Maximum unknown impurities ([2]; 50° C. + 75% RH): 0.05 % a/a and 0.04 % a/a | Total impurities ([2]; 50° C. + 75% RH): 0.43 % a/a and 0.34 % a/a | Impurity 3 [2, 4]: 0.22 % a/a and 0.30 % a/a | Impurity B [2, 4]: 0.01 % a/a | Maximum unknown impurities [2, 4]: 0.03 % a/a and 0.04 % a/a | Total impurities [2, 4]: 0.31 % a/a and 0.47 % a/a
SMILES: COC(=O)C1=C(C)NC(C)=C(C(=O)OC(C)(C)CN(C)CCC(c2ccccc2)c2ccccc2)C1c1cccc([N+](=O)[O-])c1 (centres unmarked) [Lercanidipine, methyl 1,1,N-trimethyl-N-(3,3-diphenylpropyl)-2-aminoethyl 1,4-dihydro-2,6-dimethyl-4-(3-nitrophenyl)pyridine-3,5-dicarboxylate]
peak plasma level (Tmax) [1]: 1 to 3 h | permeability classification as defined by the FDA [3]: low permeable drug | solubility in gastrointestinal pH range ([3]; pH range of 1 to 8): essentially insoluble
